Assay results: patent US20260373138A1, “COMPOUNDS WITH ANTIFUNGAL PROPERTIES” (priority 2023, published 2026)

System: A. fumigatus CEA10 reference strain
Experiment: Fluconazole potentiator screen: MIC by CLSI microbroth dilution with and without fluconazole
Assay type: cell-based, Aspergillus fumigatus
Conditions: for MIC: Aspergillus fumigatus, read-out: MIC (ug/mL) (−) Fluc; for MIC / MIC (ug/mL) (+) Fluc: 18 h; for MIC (ug/mL) (+) Fluc: with 32 μg/ml fluconazole, normoxia, GMM, 37 °C; for potency / potentiation of fluconazole (in words): structure-activity statements, fluconazole potentiator screen

SMILES	MIC [µg/mL]	MIC (ug/mL) (+) Fluc [µg/mL]	potency / potentiation of fluconazole (in words)	loss in potency compared to MBX-7591 (relative to MBX-7591) [fold]
O=C(c1ccccc1)N1CCC(Cc2ccc(COc3ccncc3)cc2)CC1 [MBX-7704]	> 15	>15		
O=C(c1ccc(Cl)cc1)N1CCC(Cc2ccc(COc3ccncc3)cc2)CC1 [MBX-7705]	1.49	1.05	low potentiation effect	
O=C(c1ccc(F)cc1)N1CCC(Cc2ccc(COc3ccncc3)cc2)CC1 [MBX-7706]	1.01	8.09	antagonistic effect	
Cc1ccc(C(=O)N2CCC(Cc3ccc(COc4ccncc4)cc3)CC2)cc1 [MBX-7707]	1.18	0.59	comparable activity to MBX-7591	
COc1ccc(C(=O)N2CCC(Cc3ccc(COc4ccncc4)cc3)CC2)cc1 [MBX-7728]	8.3	8.30		
O=C(c1ccccn1)N1CCC(Cc2ccc(COc3ccncc3)cc2)CC1 [MBX-7729]	15	15.00	did not result in appreciable increase in potency	
O=C(c1cccnc1)N1CCC(Cc2ccc(COc3ccncc3)cc2)CC1 [MBX-7730]	15	7.70	did not result in appreciable increase in potency	
O=C(c1ccncc1)N1CCC(Cc2ccc(COc3ccncc3)cc2)CC1 [MBX-7731]	7.7	7.70	did not result in appreciable increase in potency	
O=C(c1ccoc1)N1CCC(Cc2ccc(COc3ccncc3)cc2)CC1 [MBX-7732]	5.32	1.88		4
O=C(c1ccccc1F)N1CCC(Cc2ccc(COc3ccncc3)cc2)CC1 [MBX-7769]	11.4	8.09		
O=C(c1cccc(F)c1)N1CCC(Cc2ccc(COc3ccncc3)cc2)CC1 [MBX-7770]	8.09	8.09		
COc1cccc(C(=O)N2CCC(Cc3ccc(COc4ccncc4)cc3)CC2)c1 [MBX-7771]	11.8	16.70		
O=C(c1ccc2c(c1)OCCO2)N1CCC(Cc2ccc(COc3ccncc3)cc2)CC1 [MBX-7772]	12.6	12.60		
Cn1ccc(C(=O)N2CCC(Cc3ccc(COc4ccncc4)cc3)CC2)c1 [MBX-7773]	7.79	15.60	antagonistic potentiation effect with the fluconazole	
O=C(c1cccc(O)c1)N1CCC(Cc2ccc(COc3ccncc3)cc2)CC1 [MBX-7801]	> 16	>16		
O=C(c1ccc(O)cc1)N1CCC(Cc2ccc(COc3ccncc3)cc2)CC1 [MBX-7802]	> 16	>16		
O=C(c1cccc(F)c1O)N1CCC(Cc2ccc(COc3ccncc3)cc2)CC1 [MBX-7803]	> 16	>16		
O=C(c1c[nH]cn1)N1CCC(Cc2ccc(COc3ccncc3)cc2)CC1 [MBX-7804]	> 15	>15	not tolerated	
O=C(Nc1ccsc1)N1CCC(Cc2ccc(COc3ccncc3)cc2)CC1 [MBX-7805]	> 16	>16		
c1cc(OCc2ccc(CC3CCN(Cc4ccsc4)CC3)cc2)ccn1 [MBX-7806]	> 15	>15		

SMILES	MIC [µg/mL]	MIC (ug/mL) (+) Fluc [µg/mL]	potency / potentiation of fluconazole (in words)	loss in potency compared to MBX-7591 (relative to MBX-7591) [fold]
CC(c1ccsc1)N1CCC(Cc2ccc(COc3ccncc3)cc2)CC1 (centres unmarked) [MBX-7821]	> 15	>15		
O=S(=O)(c1ccsc1)N1CCC(Cc2ccc(COc3ccncc3)cc2)CC1 [MBX-7822]	> 6	1.07	the only linker reasonably tolerated, apart from the amide	
O=S(=O)(c1ccccc1)N1CCC2(CC1)CC(CCOc1ccncc1)CCO2 (centres unmarked) [MBX-7868]	8.33	2.08		
O=S(=O)(c1ccccc1F)N1CCC2(CC1)CC(CCOc1ccncc1)CCO2 (centres unmarked) [MBX-7869]	> 17	3.07		
Cc1cccc(S(=O)(=O)N2CCC3(CC2)CC(CCOc2ccncc2)CCO3)c1 (centres unmarked) [MBX-7870]	> 17	6.09		
O=S(=O)(c1ccc(F)cc1)N1CCC2(CC1)CC(CCOc1ccncc1)CCO2 (centres unmarked) [MBX-7871]	8.69	1.09		
O=S(=O)(c1cccc(Cl)c1)N1CCC2(CC1)CC(CCOc1ccncc1)CCO2 (centres unmarked) [MBX-7872]	> 18	6.38		
O=S(=O)(c1ccccn1)N1CCC2(CC1)CC(CCOc1ccncc1)CCO2 (centres unmarked) [MBX-7873]	> 16	>16		
O=S(=O)(c1cccnc1)N1CCC2(CC1)CC(CCOc1ccncc1)CCO2 (centres unmarked) [MBX-7874]	> 16	>16		
O=S(=O)(c1ccoc1)N1CCC2(CC1)CC(CCOc1ccncc1)CCO2 (centres unmarked) [MBX-7875]	> 16	8.00		
O=S(=O)(c1ccsc1)N1CCC2(CC1)CC(CCOc1ccncc1)CCO2 (centres unmarked) [MBX-7876]	> 12	2.99		
O=S(=O)(c1ccc(Cl)cc1)N1CCC2(CC1)CC(CCOc1ccncc1)CCO2 (centres unmarked) [MBX-7877]	3.19	0.80		
N#Cc1cccc(S(=O)(=O)N2CCC3(CC2)CC(CCOc2ccncc2)CCO3)c1 (centres unmarked) [MBX-7910]	> 88	22.00		
O=S(=O)(C1CC1)N1CCC2(CC1)CC(CCOc1ccncc1)CCO2 (centres unmarked) [MBX-7911]	76.1	38.10	complete loss of activity	
O=S(=O)(c1ccc(Cl)s1)N1CCC2(CC1)CC(CCOc1ccncc1)CCO2 (centres unmarked) [MBX-7912]	0.36	0.18	the most potent	
O=S(=O)(c1ccc(C(F)(F)F)nc1)N1CCC2(CC1)CC(CCOc1ccncc1)CCO2 (centres unmarked) [MBX-7913]	2.41	0.96	the most potent	
Cn1nccc1S(=O)(=O)N1CCC2(CC1)CC(CCOc1ccncc1)CCO2 (centres unmarked) [MBX-7914]	8.34	3.31		
O=S(=O)(C1CCC1)N1CCC2(CC1)CC(CCOc1ccncc1)CCO2 (centres unmarked) [MBX-7915]	39.5	49.70	complete loss of activity	
O=S(=O)(N1CCOCC1)N1CCC2(CC1)CC(CCOc1ccncc1)CCO2 (centres unmarked) [MBX-7950]	26.8	13.40	complete loss of activity	
CN1CCN(S(=O)(=O)N2CCC3(CC2)CC(CCOc2ccncc2)CCO3)CC1 (centres unmarked) [MBX-7951]	> 87	>87	complete loss of activity	

SMILES	MIC [µg/mL]	MIC (ug/mL) (+) Fluc [µg/mL]	potency / potentiation of fluconazole (in words)	loss in potency compared to MBX-7591 (relative to MBX-7591) [fold]
COc1cccc(S(=O)(=O)N2CCC3(CC2)CC(CCOc2ccncc2)CCO3)c1 (centres unmarked) [MBX-7952]	11.2	2.79		
COc1ccc(S(=O)(=O)N2CCC3(CC2)CC(CCOc2ccncc2)CCO3)cc1 (centres unmarked) [MBX-7953]	5.58	1.11		
CC(c1cccs1)N1CCC2(CC1)CC(CCOc1ccncc1)CCO2 (centres unmarked) [MBX-7954]	> 77	>77		
c1csc(CN2CCC3(CC2)CC(CCOc2ccncc2)CCO3)c1 (centres unmarked) [MBX-7955]	> 74	>74		
O=S(=O)(C1COC1)N1CCC2(CC1)CC(CCOc1ccncc1)CCO2 (centres unmarked) [MBX-7956]	> 79	>79	complete loss of activity	
COc1c(F)cccc1S(=O)(=O)N1CCC2(CC1)CC(CCOc1ccncc1)CCO2 (centres unmarked) [MBX-7958]	> 92	>92		
O=S(=O)(c1cncs1)N1CCC2(CC1)CC(CCOc1ccncc1)CCO2 (centres unmarked) [MBX-7959]	21.2	4.20		
O=S(=O)(c1cscn1)N1CCC2(CC1)CC(CCOc1ccncc1)CCO2 (centres unmarked) [MBX-7960]	42	10.60		
COc1ccccc1S(=O)(=O)N1CCC2(CC1)CC(CCOc1ccncc1)CCO2 (centres unmarked) [MBX-7961]	> 89	>89		
O=C(O)c1cccc(S(=O)(=O)N2CCC3(CC2)CC(CCOc2ccncc2)CCO3)c1 (centres unmarked) [MBX-7962]	> 92	>92		
O=C(c1ccsc1)N1CCC(Cc2ccc(C#Cc3ccncc3)cc2)CC1 [MBX-7963]	> 77	>77		
O=C(c1ccsc1)N1CCC(Cc2ccc(-c3ccncc3)cc2)CC1 [MBX-7964]	2.27	1.13	maintained potency	
O=C(c1ccsc1)N1CCC(Cc2ccc(OCc3ccncc3)cc2)CC1 [MBX-8024]	19.6	19.60	not optimal for potentiation of fluconazole	
O=C(c1ccsc1)N1CCC(Cc2ccc(Oc3ccncc3)cc2)CC1 [MBX-8025]	> 37	>37	not optimal for potentiation of fluconazole	
O=C(c1ccsc1)N1CCC(Cc2ccc(CCc3ccncc3)cc2)CC1 [MBX-8026]	2.4	0.80	maintained potency	
N#Cc1ccc(OCc2ccc(CC3CCN(C(=O)c4ccsc4)CC3)cc2)cc1 [MBX-8027]	> 83	>83		
O=C(c1ccsc1)N1CCC(Cc2ccc(CCOc3ccncc3)cc2)CC1 [MBX-8028]	0.4	0.60		
O=C(c1ccsc1)N1CCC(Cc2cccc(COc3ccncc3)c2)CC1 [MBX-8029]	27	19.00		
